The source made the active and inactive calls. No rule for the calls is given here.

The subject of this series is rodent lifetime carcinogenesis bioassay, tumor incidence TD50. In words: chronic cancer bioassays in animals – CPDB, compiled studies (AID 1745844).

`CC(C(O)c1ccccc1)N(C)N=O` (centres undefined): the TD50 runs as follows: (rat, strain Sprague-Dawley, males, by gavage, site: any site (literature study), lesion: several types, types named in the paper, dosed 104 weeks, study length 104 weeks) 40 mg/kg/day; (rat, strain Sprague-Dawley, males, by gavage, site: forestomach, lesion: papilloma, dosed 104 weeks, study length 104 weeks) 239 mg/kg/day; (rat, strain Sprague-Dawley, males, by gavage, site: forestomach, lesion: squamous-cell carcinoma, dosed 104 weeks, study length 104 weeks) 740 mg/kg/day; (rat, strain Sprague-Dawley, males, by gavage, site: liver, lesion: hepatocellular carcinoma, dosed 104 weeks, study length 104 weeks) 138 mg/kg/day; (rat, strain Sprague-Dawley, males, by gavage, site: liver, lesion: several types, types named in the paper, dosed 104 weeks, study length 104 weeks) 95.2 mg/kg/day; (rat, strain Sprague-Dawley, males, by gavage, site: lung, lesion: several types, types named in the paper, dosed 104 weeks, study length 104 weeks) 217 mg/kg/day.

In the case of `O=c1cc[nH]c(=S)[nH]1`, the TD50 is 63.3 mg/kg/day (mouse, strain C3H (MTV+), females, in feed, site: liver, lesion: hepatoma, dosed 73 weeks, study length 73 weeks); 48.6 mg/kg/day (mouse, strain C3H (MTV+), males, in feed, site: liver, lesion: hepatoma, dosed 73 weeks, study length 73 weeks); 22.9 mg/kg/day (rat, strain Fischer 344, females, in feed, site: thyroid gland, lesion: malignant tumor, dosed 103 weeks, study length 103 weeks); 8.05 mg/kg/day (rat, strain Fischer 344, males, in feed, site: thyroid gland, lesion: malignant tumor, dosed 103 weeks, study length 103 weeks). In addition, the carcinogen call is, setting by setting: (mouse, strain TM, females, in feed, site: liver, lesion: hepatoma, dosed 73 weeks, study length 73 weeks) “negative (inactive)”; (mouse, strain TM, males, in feed, site: liver, lesion: hepatoma, dosed 73 weeks, study length 73 weeks) “negative (inactive)”.

For `C=CC`, the carcinogen call by setting is: (mouse, strain B6C3F1, females, inhaled, site: any site (literature study), lesion: several types, types named in the paper, dosed 103 weeks, study length 105 weeks) “negative (inactive)”; (mouse, strain B6C3F1, males, inhaled, site: any site (literature study), lesion: several types, types named in the paper, dosed 103 weeks, study length 105 weeks) “negative (inactive)”; (mouse, strain Swiss, males, inhaled, site: any site (literature study), lesion: malignant tumor, dosed 78 weeks, study length 104 weeks) “negative (inactive)”; (mouse, strain Swiss, males, inhaled, site: any site (literature study), lesion: several types, types named in the paper, dosed 78 weeks, study length 104 weeks) “negative (inactive)”; (mouse, strain Swiss, males, inhaled, site: liver, lesion: hepatoma, dosed 78 weeks, study length 104 weeks) “negative (inactive)”; (mouse, strain Swiss, males, inhaled, site: lung, lesion: adenocarcinoma, dosed 78 weeks, study length 104 weeks) “negative (inactive)”. Also, the carcinogen call is, setting by setting: (mouse, strain Swiss, males, inhaled, site: lung, lesion: adenoma, dosed 78 weeks, study length 104 weeks) “negative (inactive)”; (rat, strain Fischer 344, females, inhaled, site: any site (literature study), lesion: several types, types named in the paper, dosed 103 weeks, study length 104 weeks) “negative (inactive)”. Besides, the TD50 was 20100 mg/kg/day (inactive) (mouse, strain Swiss, females, inhaled, site: any site (literature study), lesion: malignant tumor, dosed 78 weeks, study length 104 weeks); 10100 mg/kg/day (inactive) (mouse, strain Swiss, females, inhaled, site: any site (literature study), lesion: several types, types named in the paper, dosed 78 weeks, study length 104 weeks); 286000 mg/kg/day (inactive) (mouse, strain Swiss, females, inhaled, site: liver, lesion: hepatoma, dosed 78 weeks, study length 104 weeks); 1.2e+06 mg/kg/day (inactive) (mouse, strain Swiss, females, inhaled, site: lung, lesion: adenocarcinoma, dosed 78 weeks, study length 104 weeks); 19800 mg/kg/day (inactive) (mouse, strain Swiss, females, inhaled, site: lung, lesion: adenoma, dosed 78 weeks, study length 104 weeks); 20500 mg/kg/day (rat, strain Fischer 344, females, inhaled, site: liver, lesion: hepatocellular adenoma + hepatocellular carcinoma + neoplastic nodule, dosed 103 weeks, study length 104 weeks). For the same compound, the TD50 is, setting by setting: (rat, strain Fischer 344, males, inhaled, site: any site (literature study), lesion: several types, types named in the paper, dosed 103 weeks, study length 104 weeks) 15500 mg/kg/day (inactive); (rat, strain Fischer 344, males, inhaled, site: liver, lesion: hepatocellular adenoma + hepatocellular carcinoma + neoplastic nodule, dosed 103 weeks, study length 104 weeks) 4610 mg/kg/day.

Turning to `CC(=O)NNc1ccc(CO)cc1`, the TD50 is 287 mg/kg/day (mouse, strain Swiss albino, females, in drinking water, site: blood vessels, lesion: several types, types named in the paper, dosed 115 weeks, study length 115 weeks); 329 mg/kg/day (mouse, strain Swiss albino, females, in drinking water, site: lung, lesion: several types, types named in the paper, dosed 115 weeks, study length 115 weeks); 252 mg/kg/day (mouse, strain Swiss albino, males, in drinking water, site: blood vessels, lesion: several types, types named in the paper, dosed 115 weeks, study length 115 weeks); 208 mg/kg/day (mouse, strain Swiss albino, males, in drinking water, site: lung, lesion: several types, types named in the paper, dosed 115 weeks, study length 115 weeks). In addition, under “mouse, strain Swiss albino, males, in drinking water, site: liver, lesion: hepatoma, dosed 115 weeks, study length 115 weeks”, the carcinogen call is “negative (inactive)”.

For the compound `N[C@@H](Cc1c[nH]c2ccccc12)C(=O)O`, the carcinogen call reads like this: (mouse, strain B6C3F1, females, in feed, site: any site (literature study), lesion: several types, types named in the paper, dosed 78 weeks, study length 104 weeks) “negative (inactive)”; (rat, strain Fischer 344, females, in feed, site: any site (literature study), lesion: several types, types named in the paper, dosed 78 weeks, study length 104 weeks) “negative (inactive)”; (rat, strain Fischer 344, males, in feed, site: any site (literature study), lesion: several types, types named in the paper, dosed 78 weeks, study length 104 weeks) “negative (inactive)”; (rat, strain Fischer, males, in feed, site: urinary bladder, lesion: several types, types named in the paper, dosed 100 weeks, study length 104 weeks) “negative (inactive)”. Also, the TD50 runs as follows: (mouse, strain B6C3F1, females, in feed, site: liver, lesion: hepatocellular adenoma + hepatocellular carcinoma + neoplastic nodule, dosed 78 weeks, study length 104 weeks) 30200 mg/kg/day; (mouse, strain B6C3F1, males, in feed, site: any site (literature study), lesion: several types, types named in the paper, dosed 78 weeks, study length 104 weeks) 1470 mg/kg/day (inactive).

As a reminder, the TD50 is the 50% point of the dose-response relation for the toxic effect studied.

The values above are taken from PubChem BioAssay AID1745844 (Carcinogenic Potency Database (CPDB), 2022).
